In brackets after ≈: the same amount, converted by molar mass.
Assays:
KB [1] = experiment: Cytotoxicity against human vinblastine-negative KB cells; format: functional; details: read-out: ED50 (the source's name)
Lu1 = experiment: Cytotoxicity against human Lu1 cells; format: functional; details: read-out: ED50 (the source's name)
Col2 = experiment: Cytotoxicity against human Col2 cells; format: functional; details: read-out: ED50 (the source's name)
A-431 = experiment: Cytotoxicity against human A431 cells; format: functional; details: read-out: ED50 (the source's name)
LNCaP = experiment: Cytotoxicity against human LNCAP cells; format: functional; details: read-out: ED50 (the source's name)
HT = experiment: Cytotoxicity against human HT cells; format: functional; details: read-out: ED50 (the source's name)
ZR-75-1 = experiment: Cytotoxicity against human ZR-75-1 cells; format: functional; details: read-out: ED50 (the source's name)
SK-MEL-2 = experiment: Cytotoxicity against human SK-MEL-2 cells; format: functional; details: read-out: ED50 (the source's name)
[2] = Cytotoxicity against human BC1 cells; format: functional; details: read-out: ED50 (the source's name)
KB [3] = experiment: Cytotoxicity against human KB cells; format: functional; details: read-out: ED50 (the source's name)
[4] = Cytotoxicity against human U373 cells; format: functional, U-373MG ATCC; details: U373 MG, read-out: ED50 (the source's name)
KB [5] = experiment: Cytotoxicity against human vinblastine-positive KB cells; format: functional; details: read-out: ED50 (the source's name)
P388 = experiment: Cytotoxicity against mouse P388 cells; format: functional; details: read-out: ED50 (the source's name)

CC(=O)OC/C=C/C1OC1C1OC1C#CC#CC#CCO (stereo not drawn) [GUMMIFEROL]
EC50 (KB [1]): 0.4 µg/mL (≈ 1.4 µM)
EC50 (Lu1): 0.9 µg/mL (≈ 3.14 µM)
EC50 (Col2): 0.6 µg/mL (≈ 2.1 µM)
EC50 (A-431): 0.5 µg/mL (≈ 1.75 µM)
EC50 (LNCaP): 0.2 µg/mL (≈ 0.699 µM)
EC50 (HT): 0.1 µg/mL (≈ 0.349 µM)
EC50 (ZR-75-1): 0.2 µg/mL (≈ 0.699 µM)
EC50 (SK-MEL-2): 1.3 µg/mL (≈ 4.54 µM)
EC50 [2]: 0.2 µg/mL (≈ 0.699 µM)
EC50 (KB [3]): 0.3 µg/mL (≈ 1.05 µM)
EC50 [4]: 0.05 µg/mL (≈ 0.175 µM)
EC50 (KB [5]): 0.3 µg/mL (≈ 1.05 µM)
EC50 (P388): 0.03 µg/mL (≈ 0.105 µM)

— ChEMBL document CHEMBL1150085, “Gummiferol, a cytotoxic polyacetylene from the leaves of Adenia gummifera” (1995)
